Results on 4 compounds are retold here after article PMC3445454, “Broad and Cross-Clade CD4^+ T-Cell Responses Elicited by a DNA Vaccine Encoding Highly Conserved and Promiscuous HIV-1 M-Group Consensus Peptides” (PLoS ONE, 2012).

Changes are numbered by the printed parent chain. Where two headings read alike, the source gives them in different places. Ends that are not written are not given here.

Common to all, as to assay: biochemical
Holding throughout (assay type): binding

Assay [1] deals with T1, HLA-DP DPA1*02:01/DPB1*14:01 (Homo sapiens, UniProt P04440+P20036, A65V/A84D/A85E/E86D/F191V/F38H/G113D/G114E/G40L/I94L/K142R/L158P/L37V/M105V/M116V/M62Q/P115A/Q81R/R125K/T114A/T199I/T259P).
T1 sequence (P20036 29-260 A42M/M62Q/Q81R/T114A/K142R/L158P/F191V/T259P): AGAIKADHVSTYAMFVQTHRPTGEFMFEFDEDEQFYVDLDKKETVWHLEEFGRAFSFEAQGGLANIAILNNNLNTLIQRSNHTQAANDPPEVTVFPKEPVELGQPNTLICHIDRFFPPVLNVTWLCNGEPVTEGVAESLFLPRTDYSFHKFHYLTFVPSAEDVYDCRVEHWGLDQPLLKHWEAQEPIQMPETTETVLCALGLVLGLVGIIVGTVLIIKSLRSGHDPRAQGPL
T1 sequence (P04440 30-258 L37V/F38H/G40L/A65V/A84D/A85E/E86D/I94L/M105V/G113D/G114E/P115A/M116V/R125K/T199I/R223Q): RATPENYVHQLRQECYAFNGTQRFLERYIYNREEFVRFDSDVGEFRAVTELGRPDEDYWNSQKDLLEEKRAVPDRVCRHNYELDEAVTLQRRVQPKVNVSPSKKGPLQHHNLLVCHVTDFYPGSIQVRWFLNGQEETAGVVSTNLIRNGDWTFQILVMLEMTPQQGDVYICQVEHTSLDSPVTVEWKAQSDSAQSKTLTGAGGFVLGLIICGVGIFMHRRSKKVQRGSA

Assay [2] deals with T2, HLA-DP DPA1*01:03/DPB1*03:01 (Homo sapiens, UniProt P04440+P20036, A65V/A84D/A85E/E86D/F38Y/G113D/G114E/G40L/I94L/L37V/M105V/M116V/P115A/R125K/T199I).
T2 sequence (P20036 29-260): T1 sequence (P20036 29-260 A42M/M62Q/Q81R/T114A/K142R/L158P/F191V/T259P) with M14A, Q34M, R53Q, A86T, R114K, P130L, V163F, P231T
T2 sequence (P04440 30-258 L37V/F38Y/G40L/A65V/A84D/A85E/E86D/I94L/M105V/G113D/G114E/P115A/M116V/R125K/T199I): T1 sequence (P04440 30-258 L37V/F38H/G40L/A65V/A84D/A85E/E86D/I94L/M105V/G113D/G114E/P115A/M116V/R125K/T199I/R223Q) with H9Y, Q194R

Assay [3] deals with HLA-DR DRB3*02:02 (Homo sapiens, UniProt P01903+P79483, A212P/D57E/F66Y/L67A/R103Q/R218S/R40L/S89Y/T80R/V86D/Y55F/Y59H).
HLA-DR DRB3*02:02, sequence (P01903 26-254 limits assumed): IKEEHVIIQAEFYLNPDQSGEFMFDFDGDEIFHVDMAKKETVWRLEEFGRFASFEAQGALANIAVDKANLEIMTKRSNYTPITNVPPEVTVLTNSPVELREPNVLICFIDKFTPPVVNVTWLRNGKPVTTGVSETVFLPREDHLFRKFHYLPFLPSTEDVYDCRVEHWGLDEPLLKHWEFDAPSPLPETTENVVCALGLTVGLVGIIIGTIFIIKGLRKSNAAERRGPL
HLA-DR DRB3*02:02, sequence (P79483 30-266 R40L/Y55F/D57E/Y59H/F66Y/L67A/T80R/V86D/S89Y/R103Q/A212P/R218S limits assumed): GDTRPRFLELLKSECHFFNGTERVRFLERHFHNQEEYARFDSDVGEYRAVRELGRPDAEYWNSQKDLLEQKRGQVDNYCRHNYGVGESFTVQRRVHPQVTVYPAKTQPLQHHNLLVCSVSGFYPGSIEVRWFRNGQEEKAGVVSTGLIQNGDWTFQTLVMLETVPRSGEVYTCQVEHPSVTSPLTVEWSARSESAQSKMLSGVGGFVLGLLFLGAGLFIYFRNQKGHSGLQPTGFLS
For assay [4], the target named is HLA-DR DRB1*07:01 (Homo sapiens, UniProt P01903+P01911, A100R/A102G/A103Q/D57E/D86V/E43K/F76Y/K127E/L162R/M171V/P40G/Q125H/Q99D/R33Q/R42Y/R54Q/S133A/S66F/T210M/V115G/Y107V/Y59L/Y89S).
Assay [5] concerns the target HLA-DR DRB1*09:01 (Homo sapiens, UniProt P01903+P01911, A100R/A103E/D57H/D86V/F55Y/F60I/F76Y/I96F/K127E/L162R/M171V/P40D/Q125H/Q99R/R33Q/R42F/S133A/S66N/T210M/V115G/W38K/Y107V/Y59G/Y89S).
The target in assay [6] is HLA-DR DRB1*12:01 (Homo sapiens, UniProt P01903+P01911, A100R/A169T/D57E/D86V/F55L/H45Y/K41T/L162R/M171V/P40S/Q125H/Q178H/Q39Y/Q99D/R42G/S66L/T262R/V114A/V67L/W38E/Y59H/Y61H/Y89S).
For assay [7], the target named is HLA-DR DRB1*03:01 (Homo sapiens, UniProt P01903+P01911, A100K/A102G/A103R/A169T/F55Y/I96L/K41T/L162R/M171V/P40S/Q125H/Q178H/Q39Y/R42S/S66N/T106N/T262R/W38E/Y61H).
HLA-DR DRB1*03:01, sequence (P01903 26-254 limits assumed, other chains not shown): as the sequence (P01903 26-254 limits assumed) above
Assay [8] deals with HLA-DR DRB1*11:01 (Homo sapiens, UniProt P01903+P01911, A100R/A169T/A87E/I96F/K41T/L162R/M171V/P40S/Q125H/Q178H/Q39Y/Q99D/R42S/S66Y/T262R/V115G/W38E).
HLA-DR DRB1*11:01, sequence (P01903 26-254 limits assumed, other chains not shown): as the sequence (P01903 26-254 limits assumed) above
Assay [9] concerns the target HLA-DR DRB1*13:02 (Homo sapiens, UniProt P01903+P01911, A100E/A169T/K41T/L162R/M171V/P40S/Q125H/Q178H/Q39Y/Q99D/R42S/S66N/T262R/V115G/W38E/Y61H).
The target in assay [10] is HLA-DR DRB1*10:01 (Homo sapiens, UniProt P01903+P01911, A100R/A169T/D57E/F55L/F60V/F69Y/F76Y/I96L/L162R/M171V/P40V/Q260P/Q39E/Q99R/R195Q/R42F/S149N/S66Y/T210M/V115G/V67A/W38E/Y59R/Y61H).
The mark [11] stands for this setting: read-out: Binding capacity/IC50 (nM) DRB3*02:02.
[12] abbreviates: read-out: Binding capacity/IC50 (nM) DRB1*07:01.
Where [13] appears, read: read-out: Binding capacity/IC50 (nM) DRB1*09:01.
Where [14] appears, read: read-out: Binding capacity/IC50 (nM) DRB1*12:01.
[15] abbreviates: read-out: Binding capacity/IC50 (nM) DRB1*03:01.
[16] abbreviates: read-out: Binding capacity/IC50 (nM) DRB1*11:01.
[17] abbreviates: read-out: Binding capacity/IC50 (nM) DRB1*13:02.
Where [18] appears, read: read-out: Binding capacity/IC50 (nM) DRB1*10:01.
Where [19] appears, read: read-out: Binding capacity/IC50 (nM) DPA1*02:01 DPB1*14:01.
Where [20] appears, read: read-out: Binding capacity/IC50 (nM) DPA1*01:03 DPB1*03:01.

HLA-DR DRB1*13:02, sequence (P01903 26-254 limits assumed, other chains not shown): as the sequence (P01903 26-254 limits assumed) above

For the compound YAKMRSAHTNDVKQL-NH2 [RT(354-368)], the IC50 was 919 nM in assay [1]; 11900 nM in assay [2]; 2850 nM in assay [3] (setting [11]); 120 nM in assay [4] (setting [12]); 66 nM in [5] (setting [13]); 4840 nM in [6] (setting [14]). Further, the IC50 in [7] (setting [15]) amounted to 7100 nM; in assay [8] (setting [16]), 1760 nM; in assay [9] (setting [17]) it was 74 nM; in assay [10] (setting [18]) it was 16 nM.

As for IVALIIAIVVWTIV-NH2 [vpu(13-26)], the IC50 is more than 30000 nM in assay [1] (setting [19]); 2580 nM in [2] (setting [20]); more than 30000 nM in [3]; more than 30000 nM in [4] (setting [12]); 6640 nM in assay [5] (setting [13]); 12700 nM in [6] (setting [14]). The IC50 in assay [7] (setting [15]) was more than 30000 nM; in assay [8] (setting [16]), 12700 nM; in [9] (setting [17]) it was more than 30000 nM; in [10] (setting [18]) it was 1780 nM.

For the compound `CC[C@H](C)[C@H](NC(=O)[C@H](C)NC(=O)[C@H](CCCCN)NC(=O)[C@H](CCCCN)NC(=O)CNC(=O)[C@H](CS)NC(=O)[C@@H](NC(=O)[C@H](CCC(=O)O)NC(=O)[C@@H](NC(=O)[C@H](CC(C)C)NC(=O)[C@@H](NC(=O)[C@H](CCC(N)=O)NC(=O)[C@H](CC(=O)O)NC(=O)[C@H](Cc1ccc(O)cc1)NC(=O)[C@H](CCC(N)=O)NC(=O)[C@H](CCCNC(=N)N)NC(=O)[C@@H](NC(=O)[C@H](CCCCN)NC(=O)[C@@H](NC(=O)[C@@H](N)Cc1ccccc1)[C@@H](C)CC)C(C)C)[C@@H](C)CC)[C@@H](C)CC)[C@@H](C)CC)C(=O)NCC(=O)N[C@H](C(=O)N[C@H](C(N)=O)C(C)C)[C@@H](C)O` [protease(53-75)], the IC50 stood at 1250 nM in assay [1] (setting [19]); 9.4 nM in [2] (setting [20]); 9690 nM in assay [3] (setting [11]); 1770 nM in [4]; 234 nM in assay [5]; 77 nM in assay [6]. Besides, the IC50 turned out to be 347 nM in [7], 1360 nM in [8], 4080 nM in [9] and 62 nM in assay [10].

With `CC[C@H](C)[C@H](NC(=O)[C@H](CCCCN)NC(=O)[C@H](CCC(N)=O)NC(=O)[C@@H](NC(=O)[C@H](C)NC(=O)[C@H](CCC(=O)O)NC(=O)[C@@H](N)[C@@H](C)O)C(C)C)C(=O)N[C@@H](C)C(=O)N[C@H](C(=O)N[C@@H](CCC(=O)O)C(=O)N[C@@H](CO)C(=O)N[C@H](C(=O)N[C@H](C(=O)N[C@H](C(=O)N[C@@H](Cc1c[nH]c2ccccc12)C(=O)NCC(=O)N[C@@H](CCCCN)C(=O)N[C@H](C(=O)N1CCC[C@H]1C(=O)N[C@@H](CCCCN)C(=O)N[C@@H](Cc1ccccc1)C(=O)N[C@@H](CCCNC(=N)N)C(=O)N[C@@H](CC(C)C)C(N)=O)[C@@H](C)O)[C@@H](C)CC)C(C)C)[C@@H](C)CC)[C@@H](C)O` [RT(369-391)], the IC50 in [1] (setting [19]) is 78 nM; in assay [2] (setting [20]), 5360 nM; in [3] (setting [11]), 8840 nM; in assay [4] (setting [12]), 20 nM; in [5] (setting [13]), 310 nM; in assay [6] (setting [14]), 471 nM. The IC50 in [7] (setting [15]) came out at 287 nM; in assay [8] (setting [16]), 329 nM; in assay [9] (setting [17]), 1290 nM; in assay [10] (setting [18]) it was 24 nM.
